In article PMC9500072, “Topical application of an irreversible small molecule inhibitor of lysyl oxidases ameliorates skin scarring and fibrosis” (Nature Communications, 2022):
pIC50: −log10 of the molar value.

Experiments:
Dog Aorta LOX = Dog Aorta LOX (Canis lupus familiaris, UniProt A0A8I3N9H6); assay type: biochemical
Protocol: (§1) The measurement of the enzymatic activity of all lysyl oxidase family members was based on the detection of hydrogen peroxide with an Amplex-Red oxidation assay, as previously described; miniaturized in 384 well formats, with the appropriate combination of substrate and assay buffer for each individual enzyme. After a 30 min pre-incubation of the enzyme at 37 °C with the test compound (or with different incubation times for the time-dependency assay), one volume of reaction mixture containing 120 μM Amplex Red (AR) (Life Technologies), 1.5 U/mL horseradish peroxidase (HRP) (Sigma-Aldrich) and the specific substrate was added to each sample. The relative fluorescence units (RFU) were then measured every 2.5 min for 30 min at 37 °C, excitation 565 nm and emission 590, on a BMG Clariostar Microplate Reader. All the substrates were used at concentrations corresponding to their Km towards the corresponding enzyme, or with a range of different concentrations for the substrate competition experiments.
Lysyl oxidases assay buffer contained 1.2 M urea, 50 mM sodium borate buffer, pH 8.2 and 100 µM β-aminoproprionitrile (BAPN, Sigma-Aldrich) was used for low control. […]

Interleukin IL-1 = Interleukin IL-1 (Mus musculus, UniProt P13504); experiment: Eurofins panel 243520; assay type: binding
Sequence of Interleukin IL-1 (P13504 20-576): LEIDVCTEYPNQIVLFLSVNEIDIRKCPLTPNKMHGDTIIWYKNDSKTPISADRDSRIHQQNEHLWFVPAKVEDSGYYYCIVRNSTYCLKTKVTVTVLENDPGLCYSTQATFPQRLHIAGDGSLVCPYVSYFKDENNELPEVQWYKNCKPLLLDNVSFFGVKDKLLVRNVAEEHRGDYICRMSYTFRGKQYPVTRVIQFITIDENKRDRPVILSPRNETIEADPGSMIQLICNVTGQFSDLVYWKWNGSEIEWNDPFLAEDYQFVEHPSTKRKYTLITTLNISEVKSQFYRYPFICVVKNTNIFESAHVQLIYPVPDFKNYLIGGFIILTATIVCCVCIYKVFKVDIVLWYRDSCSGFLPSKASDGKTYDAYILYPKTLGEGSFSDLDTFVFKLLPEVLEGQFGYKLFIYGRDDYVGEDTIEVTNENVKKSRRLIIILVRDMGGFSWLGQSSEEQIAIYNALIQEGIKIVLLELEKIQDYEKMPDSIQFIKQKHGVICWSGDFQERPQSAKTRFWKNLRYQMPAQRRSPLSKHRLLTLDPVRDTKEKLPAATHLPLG

Neuropeptide Y Y1 = Neuropeptide Y Y1 (Homo sapiens, UniProt P25929); experiment: Eurofins panel 257010; assay type: binding
Sequence of Neuropeptide Y Y1 (P25929 whole entry): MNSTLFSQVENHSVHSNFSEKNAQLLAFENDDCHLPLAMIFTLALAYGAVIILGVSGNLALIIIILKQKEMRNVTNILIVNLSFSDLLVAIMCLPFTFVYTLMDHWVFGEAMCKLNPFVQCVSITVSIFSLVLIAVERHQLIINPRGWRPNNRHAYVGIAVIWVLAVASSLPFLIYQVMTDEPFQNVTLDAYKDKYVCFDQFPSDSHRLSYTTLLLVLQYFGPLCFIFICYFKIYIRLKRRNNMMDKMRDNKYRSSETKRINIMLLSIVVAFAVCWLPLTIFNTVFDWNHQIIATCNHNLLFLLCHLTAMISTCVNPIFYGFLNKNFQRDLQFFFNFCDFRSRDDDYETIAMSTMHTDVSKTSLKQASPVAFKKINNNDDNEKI

Nicotinic Acetylcholine = experiment: Eurofins panel 258590; assay type: binding, human; conditions: 10 µM
Sigma σ1 = Sigma σ1 (Homo sapiens, UniProt Q99720); experiment: Eurofins panel 278110; assay type: binding
LOX = experiment: Substrate (putrescine) competition; assay type: biochemical; set-up: Fig. 2D activity: scale not given here
Text: PXS-4787 competes with a model substrate (putrescine) for the LOX binding site (Fig. 2d). The allylamine of PXS-4787 interacts with the co-factor of the enzyme and elicits mechanism-based inhibition (Fig. 2e). Through careful optimization, and in contrast to BAPN, PXS-4787 selectivity targets lysyl oxidases and is neither an inhibitor of, nor a substrate for, related oxidases (Fig. 2f, g and Supplementary Table S1). Furthermore, PXS-4787 was clean when profiled in a broad panel of macromolecular targets using enzyme and radioligand binding assays (LeadProfilingScreen, Eurofins CEREP Panlabs, 68 assays, test concentration 10 µM; Supplementary Data S1).
Data are expressed as mean ± SEM. Subsequent statistical analysis was performed with unpaired two-sided Student’s t tests. *p < 0.05, **p < 0.01, ***p < 0.001and ****p < 0.0001. Source data are provided as a Source Data file.
as §1

[1] = test system: Calcium Channel L-Type, Benzothiazepine; experiment: Eurofins panel 214510; assay type: binding, rat; conditions: 10 µM
Imidazoline I2, Central = experiment: Eurofins panel 241000; assay type: binding, rat; conditions: 10 µM
Melatonin MT1 = Melatonin MT1 (Homo sapiens, UniProt P48039); experiment: Eurofins panel 251600; assay type: binding
Sequence of Melatonin MT1 (P48039 whole entry): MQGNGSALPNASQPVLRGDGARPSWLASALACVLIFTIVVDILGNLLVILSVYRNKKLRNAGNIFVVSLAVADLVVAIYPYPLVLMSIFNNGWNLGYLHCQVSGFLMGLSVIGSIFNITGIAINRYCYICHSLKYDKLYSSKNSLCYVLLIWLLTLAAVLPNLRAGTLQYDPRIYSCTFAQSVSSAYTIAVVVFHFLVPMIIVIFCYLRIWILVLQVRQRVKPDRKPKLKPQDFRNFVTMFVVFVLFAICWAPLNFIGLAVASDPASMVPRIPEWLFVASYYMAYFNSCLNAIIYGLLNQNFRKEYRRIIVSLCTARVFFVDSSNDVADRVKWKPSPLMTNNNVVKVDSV

Adenosine A1 = Adenosine A1 (Homo sapiens, UniProt P30542); experiment: Eurofins panel 200510; assay type: binding
Sequence of Adenosine A1 (P30542 whole entry): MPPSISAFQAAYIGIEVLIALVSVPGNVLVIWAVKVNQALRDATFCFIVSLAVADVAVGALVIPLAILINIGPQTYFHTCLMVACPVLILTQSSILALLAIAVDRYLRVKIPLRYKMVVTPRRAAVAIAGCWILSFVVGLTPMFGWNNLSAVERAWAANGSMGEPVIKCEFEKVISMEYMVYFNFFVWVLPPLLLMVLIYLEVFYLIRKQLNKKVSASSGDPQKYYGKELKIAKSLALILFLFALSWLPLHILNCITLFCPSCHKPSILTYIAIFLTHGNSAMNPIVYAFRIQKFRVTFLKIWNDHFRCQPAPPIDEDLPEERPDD

Histamine H3 = Histamine H3 (Homo sapiens, UniProt Q9Y5N1); experiment: Eurofins panel 239820; assay type: binding
Sequence of Histamine H3 (Q9Y5N1 whole entry): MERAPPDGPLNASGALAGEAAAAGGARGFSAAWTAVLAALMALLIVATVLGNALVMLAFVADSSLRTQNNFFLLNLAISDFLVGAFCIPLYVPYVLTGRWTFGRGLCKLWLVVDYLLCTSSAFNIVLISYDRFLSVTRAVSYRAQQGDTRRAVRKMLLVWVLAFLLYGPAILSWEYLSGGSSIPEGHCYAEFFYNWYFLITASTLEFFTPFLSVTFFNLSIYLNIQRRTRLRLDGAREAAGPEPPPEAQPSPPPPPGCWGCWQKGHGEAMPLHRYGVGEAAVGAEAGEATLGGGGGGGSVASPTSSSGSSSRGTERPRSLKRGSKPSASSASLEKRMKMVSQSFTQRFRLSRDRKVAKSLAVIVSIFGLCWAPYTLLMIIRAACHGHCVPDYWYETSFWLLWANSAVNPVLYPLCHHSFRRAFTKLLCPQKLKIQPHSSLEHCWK

GABAA, Muscimol, Central = experiment: Eurofins panel 226500; assay type: binding, rat; conditions: 10 µM
Rolipram = experiment: Eurofins panel 270000; assay type: binding, rat; conditions: 10 µM
[2] = molecular target: Epidermal Growth Factor (EGF) (Homo sapiens, UniProt P00533); experiment: Eurofins panel 225510; assay type: binding
Sequence of Epidermal Growth Factor (EGF) (P00533 25-1210): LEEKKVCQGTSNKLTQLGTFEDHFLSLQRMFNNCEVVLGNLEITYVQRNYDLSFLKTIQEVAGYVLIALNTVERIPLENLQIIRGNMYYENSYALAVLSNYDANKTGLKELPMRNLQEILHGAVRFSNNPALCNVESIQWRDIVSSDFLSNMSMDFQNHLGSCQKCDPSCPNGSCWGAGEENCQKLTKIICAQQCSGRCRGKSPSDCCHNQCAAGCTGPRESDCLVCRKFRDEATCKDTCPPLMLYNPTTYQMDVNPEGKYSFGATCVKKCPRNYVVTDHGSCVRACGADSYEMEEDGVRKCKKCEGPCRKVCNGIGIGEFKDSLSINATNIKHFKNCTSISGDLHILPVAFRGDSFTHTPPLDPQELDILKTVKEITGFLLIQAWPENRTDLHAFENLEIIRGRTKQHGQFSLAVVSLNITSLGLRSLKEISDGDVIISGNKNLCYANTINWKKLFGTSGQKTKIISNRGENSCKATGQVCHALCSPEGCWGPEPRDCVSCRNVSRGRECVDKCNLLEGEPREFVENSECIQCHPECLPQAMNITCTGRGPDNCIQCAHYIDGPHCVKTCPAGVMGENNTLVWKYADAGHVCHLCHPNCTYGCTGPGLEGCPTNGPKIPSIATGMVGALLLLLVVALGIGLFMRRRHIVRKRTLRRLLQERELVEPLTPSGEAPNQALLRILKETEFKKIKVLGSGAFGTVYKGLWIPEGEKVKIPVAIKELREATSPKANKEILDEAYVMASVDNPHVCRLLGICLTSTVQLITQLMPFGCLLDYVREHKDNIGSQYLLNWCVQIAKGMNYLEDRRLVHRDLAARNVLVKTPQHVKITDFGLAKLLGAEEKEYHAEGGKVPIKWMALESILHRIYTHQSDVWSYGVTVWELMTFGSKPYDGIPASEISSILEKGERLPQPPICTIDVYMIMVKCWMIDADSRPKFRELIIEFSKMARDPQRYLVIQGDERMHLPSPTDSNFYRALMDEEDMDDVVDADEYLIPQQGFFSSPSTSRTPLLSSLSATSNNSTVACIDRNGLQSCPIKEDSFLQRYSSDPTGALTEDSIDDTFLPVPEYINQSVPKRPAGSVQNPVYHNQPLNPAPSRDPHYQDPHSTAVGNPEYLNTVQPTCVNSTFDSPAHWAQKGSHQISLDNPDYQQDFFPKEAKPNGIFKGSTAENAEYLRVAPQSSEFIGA

HepG2 cells = experiment: Phospholipidosis in HepG2 cells; assay type: cell-based; conditions: 0–100 µM
Transporter, GABA = Transporter, GABA (Rattus norvegicus, UniProt P23978); experiment: Eurofins panel 226400; assay type: binding
Neuropeptide Y Y2 = Neuropeptide Y Y2 (Homo sapiens, UniProt P49146); experiment: Eurofins panel 257110; assay type: binding
Sequence of Neuropeptide Y Y2 (P49146 whole entry): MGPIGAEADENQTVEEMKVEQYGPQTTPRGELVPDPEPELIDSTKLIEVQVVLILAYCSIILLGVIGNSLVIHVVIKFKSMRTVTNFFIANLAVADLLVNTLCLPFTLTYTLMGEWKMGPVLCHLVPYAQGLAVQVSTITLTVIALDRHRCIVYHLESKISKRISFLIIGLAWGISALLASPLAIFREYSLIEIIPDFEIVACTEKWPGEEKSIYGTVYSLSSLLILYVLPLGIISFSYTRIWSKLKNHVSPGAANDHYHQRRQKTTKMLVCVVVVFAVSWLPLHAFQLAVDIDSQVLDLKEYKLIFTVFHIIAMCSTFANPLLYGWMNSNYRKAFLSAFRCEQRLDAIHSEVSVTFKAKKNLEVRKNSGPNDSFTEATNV

Potassium Channel [KA] = experiment: Eurofins panel 265510; assay type: binding, rat; conditions: 30 µM
[3] = molecular target: Serotonin (5-Hydroxytryptamine) 5-HT2A (Homo sapiens, UniProt P28223); experiment: Eurofins panel 271650; assay type: binding
Sequence of Serotonin (5-Hydroxytryptamine) 5-HT2A (P28223 whole entry): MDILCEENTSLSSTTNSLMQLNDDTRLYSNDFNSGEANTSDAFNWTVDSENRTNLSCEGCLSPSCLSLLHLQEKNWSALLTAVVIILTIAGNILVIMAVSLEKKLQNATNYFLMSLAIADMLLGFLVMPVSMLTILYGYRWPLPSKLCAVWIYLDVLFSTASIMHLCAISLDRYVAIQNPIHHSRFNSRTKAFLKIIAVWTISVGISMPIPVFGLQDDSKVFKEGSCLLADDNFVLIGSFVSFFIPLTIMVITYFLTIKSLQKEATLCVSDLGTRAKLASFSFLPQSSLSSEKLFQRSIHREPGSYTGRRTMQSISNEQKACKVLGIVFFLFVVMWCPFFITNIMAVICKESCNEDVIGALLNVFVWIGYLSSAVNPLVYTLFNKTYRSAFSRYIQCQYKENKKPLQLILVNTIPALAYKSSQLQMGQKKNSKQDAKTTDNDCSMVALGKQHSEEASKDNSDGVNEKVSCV

Sequence of Dog Aorta LOX (A0A8I3N9H6 entry or part of it): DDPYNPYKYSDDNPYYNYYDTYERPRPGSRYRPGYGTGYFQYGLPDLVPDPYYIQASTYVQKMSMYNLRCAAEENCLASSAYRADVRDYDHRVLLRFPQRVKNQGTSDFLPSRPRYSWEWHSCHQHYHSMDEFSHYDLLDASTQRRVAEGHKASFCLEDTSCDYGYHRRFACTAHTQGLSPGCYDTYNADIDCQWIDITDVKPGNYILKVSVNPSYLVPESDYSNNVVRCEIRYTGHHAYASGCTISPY

N#CCCN [BAPN, β-aminoproprionitrile, reference compound]
Dog Aorta LOX pIC50±SD (Dog Aorta LOX): 5.7 ± 0.1
pIC50 (Dog Aorta LOX): 5.67

NC/C=C(\F)CS(=O)(=O)c1ccccc1 [PXS-4787]
inhibition at 10 µM (Interleukin IL-1): 7%
inhibition at 10 µM (Neuropeptide Y Y1): 0%
% Inh. (Nicotinic Acetylcholine): 1%
inhibition at 10 µM (Sigma σ1): -10%
competition with model substrate putrescine for the LOX binding site (LOX): competes
Fig. 2D activity (LOX; 5.65e-10, putrescine 1.1 mM): 89.58
Fig. 2D activity (LOX; 5.65e-10, putrescine 3.3 mM): 93.22
Fig. 2D activity (LOX; 5.65e-10, putrescine 10 mM): 98.29
Fig. 2D activity (LOX; 5.65e-10, putrescine 30 mM): 96.57
Fig. 2D activity (LOX; 5.65e-10, putrescine 90 mM): 93.38
Fig. 2D activity (LOX; 1.69e-9, putrescine 1.1 mM): 84.4
Fig. 2D activity (LOX; 1.69e-9, putrescine 3.3 mM): 94.23
Fig. 2D activity (LOX; 1.69e-9, putrescine 10 mM): 94.63
Fig. 2D activity (LOX; 1.69e-9, putrescine 30 mM): 93.67
Fig. 2D activity (LOX; 1.69e-9, putrescine 90 mM): 92.69
Fig. 2D activity (LOX; 5.08e-9, putrescine 1.1 mM): 89.54
Fig. 2D activity (LOX; 5.08e-9, putrescine 3.3 mM): 93.84
Fig. 2D activity (LOX; 5.08e-9, putrescine 10 mM): 97.41
Fig. 2D activity (LOX; 5.08e-9, putrescine 30 mM): 96.12
Fig. 2D activity (LOX; 5.08e-9, putrescine 90 mM): 91.41
Fig. 2D activity (LOX; 1.52e-8, putrescine 1.1 mM): 91.17
Fig. 2D activity (LOX; 1.52e-8, putrescine 3.3 mM): 95.49
Fig. 2D activity (LOX; 1.52e-8, putrescine 10 mM): 93.57
Fig. 2D activity (LOX; 1.52e-8, putrescine 30 mM): 97.83
Fig. 2D activity (LOX; 1.52e-8, putrescine 90 mM): 92.34
Fig. 2D activity (LOX; 4.57e-8, putrescine 1.1 mM): 81.95
Fig. 2D activity (LOX; 4.57e-8, putrescine 3.3 mM): 93.97
Fig. 2D activity (LOX; 4.57e-8, putrescine 10 mM): 95.69
Fig. 2D activity (LOX; 4.57e-8, putrescine 30 mM): 96.71
Fig. 2D activity (LOX; 4.57e-8, putrescine 90 mM): 93.31
Fig. 2D activity (LOX; 1.37e-7, putrescine 1.1 mM): 73.72
Fig. 2D activity (LOX; 1.37e-7, putrescine 3.3 mM): 89.33
Fig. 2D activity (LOX; 1.37e-7, putrescine 10 mM): 93.77
Fig. 2D activity (LOX; 1.37e-7, putrescine 30 mM): 94.81
Fig. 2D activity (LOX; 1.37e-7, putrescine 90 mM): 93.26
Fig. 2D activity (LOX; 4.12e-7, putrescine 1.1 mM): 60.93
Fig. 2D activity (LOX; 4.12e-7, putrescine 3.3 mM): 75.9
Fig. 2D activity (LOX; 4.12e-7, putrescine 10 mM): 89.23
Fig. 2D activity (LOX; 4.12e-7, putrescine 30 mM): 89.28
Fig. 2D activity (LOX; 4.12e-7, putrescine 90 mM): 90.74
Fig. 2D activity (LOX; 1.23e-6, putrescine 1.1 mM): 32.69
Fig. 2D activity (LOX; 1.23e-6, putrescine 3.3 mM): 47.9
Fig. 2D activity (LOX; 1.23e-6, putrescine 10 mM): 67.1
Fig. 2D activity (LOX; 1.23e-6, putrescine 30 mM): 81.21
Fig. 2D activity (LOX; 1.23e-6, putrescine 90 mM): 86.37
Fig. 2D activity (LOX; 3.7e-6, putrescine 1.1 mM): 11.17
Fig. 2D activity (LOX; 3.7e-6, putrescine 3.3 mM): 19.92
Fig. 2D activity (LOX; 3.7e-6, putrescine 10 mM): 38.7
Fig. 2D activity (LOX; 3.7e-6, putrescine 30 mM): 60.57
Fig. 2D activity (LOX; 3.7e-6, putrescine 90 mM): 76.61
Fig. 2D activity (LOX; 1.11e-5, putrescine 1.1 mM): 3.35
Fig. 2D activity (LOX; 1.11e-5, putrescine 3.3 mM): 6.43
Fig. 2D activity (LOX; 1.11e-5, putrescine 10 mM): 14.18
Fig. 2D activity (LOX; 1.11e-5, putrescine 30 mM): 32.4
Fig. 2D activity (LOX; 1.11e-5, putrescine 90 mM): 57.08
Fig. 2D activity (LOX; 3.33e-5, putrescine 1.1 mM): -0.5
Fig. 2D activity (LOX; 3.33e-5, putrescine 3.3 mM): 1.53
Fig. 2D activity (LOX; 3.33e-5, putrescine 10 mM): 3.65
Fig. 2D activity (LOX; 3.33e-5, putrescine 30 mM): 9.04
Fig. 2D activity (LOX; 3.33e-5, putrescine 90 mM): 24.08
Fig. 2D activity (LOX; 0.0001, putrescine 1.1 mM): -0.9
Fig. 2D activity (LOX; 0.0001, putrescine 3.3 mM): -0.36
Fig. 2D activity (LOX; 0.0001, putrescine 10 mM): 0.174
Fig. 2D activity (LOX; 0.0001, putrescine 30 mM): 1.46
Fig. 2D activity (LOX; 0.0001, putrescine 90 mM): 4.82
% Inh. [1]: 24%
% Inh. (Imidazoline I2, Central): -10%
inhibition at 10 µM (Melatonin MT1): -2%
inhibition at 10 µM (Adenosine A1): 1%
inhibition at 10 µM (Histamine H3): -5%
% Inh. (GABAA, Muscimol, Central): 13%
% Inh. (Rolipram): 17%
inhibition at 10 µM [2]: 1%
phospholipidosis score (HepG2 cells): 0
inhibition at 10 µM (Transporter, GABA): 0%
inhibition at 10 µM (Neuropeptide Y Y2): 0%

NC/C=C(\F)C(F)(F)S(=O)(=O)c1ccccc1 [PXS-6302]
% Inh. (Potassium Channel [KA]): 2%
inhibition at 30 µM [3]: 25%
